Experiment [1] concerns the target T1, RNA-binding protein pos-1 (Caenorhabditis elegans, UniProt G5EF15).
T1 sequence (G5EF15 whole entry): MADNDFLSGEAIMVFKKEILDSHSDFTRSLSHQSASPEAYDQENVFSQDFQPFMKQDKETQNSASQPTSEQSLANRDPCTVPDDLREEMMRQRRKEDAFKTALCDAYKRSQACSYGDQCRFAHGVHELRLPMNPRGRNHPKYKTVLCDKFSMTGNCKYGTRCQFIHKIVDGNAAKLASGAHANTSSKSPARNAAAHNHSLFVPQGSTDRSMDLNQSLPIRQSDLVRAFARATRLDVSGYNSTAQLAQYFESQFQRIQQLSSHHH
Put plainly: inhibitors of POS-1/mex-3 RNA binding, dose response, biochemical, fluorescence polarization (AID 1964).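 Note: purified POS-1 fused to maltose binding protein made in E. coli; potency of compounds blocking POS-1 binding to fluorescent RNA.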 For orientation: Fluorescence polarisation rises when a labelled molecule tumbles more slowly, as on binding a larger partner.

For experiment [2], the target named is T2, Zinc finger protein mex-5 (Caenorhabditis elegans, UniProt Q9XUB2).
T2 sequence (Q9XUB2 whole entry): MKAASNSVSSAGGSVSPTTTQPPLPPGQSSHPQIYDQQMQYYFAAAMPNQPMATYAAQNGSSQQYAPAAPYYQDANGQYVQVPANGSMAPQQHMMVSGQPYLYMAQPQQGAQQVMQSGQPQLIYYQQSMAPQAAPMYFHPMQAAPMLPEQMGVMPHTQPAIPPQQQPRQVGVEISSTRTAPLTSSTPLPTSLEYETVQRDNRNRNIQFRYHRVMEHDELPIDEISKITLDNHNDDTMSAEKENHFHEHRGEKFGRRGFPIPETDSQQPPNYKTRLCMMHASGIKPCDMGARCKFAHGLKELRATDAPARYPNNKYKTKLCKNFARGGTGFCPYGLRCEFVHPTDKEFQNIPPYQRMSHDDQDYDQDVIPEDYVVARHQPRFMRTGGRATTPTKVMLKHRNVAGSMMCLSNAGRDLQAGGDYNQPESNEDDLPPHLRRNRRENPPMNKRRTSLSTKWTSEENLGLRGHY
Put plainly: MEX-5/TCR-2 RNA interaction inhibitors, dose response, biochemical, C. elegans, fluorescence polarization (AID 1960).

Another experiment addresses Cytochrome P450 3A4 (Homo sapiens, UniProt P08684).
Experiment [3] has as its system Streptococcus sp. 'group A'. The experiment in a line: growth inhibition of control SK(-) GAS strain, dose response, counter-screen for streptokinase expression inhibitor project, luminescence, kanamycin, BacTiterGlo, confirmation (AID 1900). It counts as functional, organism-based. On the technique in general: Counterscreens check selectivity or assay interference.

The target in the next experiment is T3, Streptokinase A (Streptococcus pyogenes serotype M1, UniProt P10520).
T3 sequence (P10520 whole entry): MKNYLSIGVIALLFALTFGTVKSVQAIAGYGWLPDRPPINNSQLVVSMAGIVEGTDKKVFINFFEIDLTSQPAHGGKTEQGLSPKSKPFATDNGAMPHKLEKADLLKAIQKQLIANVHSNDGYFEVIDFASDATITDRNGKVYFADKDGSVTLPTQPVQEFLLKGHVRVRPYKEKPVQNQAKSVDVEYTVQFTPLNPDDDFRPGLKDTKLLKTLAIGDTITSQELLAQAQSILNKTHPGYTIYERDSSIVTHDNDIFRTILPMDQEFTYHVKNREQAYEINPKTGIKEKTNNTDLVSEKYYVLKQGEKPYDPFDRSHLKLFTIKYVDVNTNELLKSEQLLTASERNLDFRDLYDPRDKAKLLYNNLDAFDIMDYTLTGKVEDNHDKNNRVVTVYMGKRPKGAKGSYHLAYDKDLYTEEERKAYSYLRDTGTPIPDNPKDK
Put plainly: S. pyogenes streptokinase expression inhibitors, potency, dose response, plasminogen activation absorbance, OD405 (AID 1914).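 Note: secreted streptokinase activity via plasminogen activation per viability signal from cell pellet.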 It counts as functional, Streptococcus pyogenes M1 GAS.

Another experiment has as its system Streptococcus. Put plainly: Group A Streptococcus viability loss, dose response, counter-screen for streptokinase expression inhibitor project, luminescence, BacTiterGlo (AID 1915).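 Note: potency for reduction of bacterial viability or growth.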 In kind it is functional, organism-based.
A further experiment addresses Cytochrome P450 2C19 (Homo sapiens, UniProt P33261). The experiment in a line: Cytochrome panel assay with activity outcomes. Panel member name: p450-cyp2c19 Compounds with AC50 equal or less than 10 uM are considered active. It counts as functional. Conditions: read-out: AC50.

Molecules are shown by their SMILES. Calls of active or inactive are those of the source. Some results are limits rather than exact numbers.

Cytochrome P450 3A4, sequence (P08684 whole entry): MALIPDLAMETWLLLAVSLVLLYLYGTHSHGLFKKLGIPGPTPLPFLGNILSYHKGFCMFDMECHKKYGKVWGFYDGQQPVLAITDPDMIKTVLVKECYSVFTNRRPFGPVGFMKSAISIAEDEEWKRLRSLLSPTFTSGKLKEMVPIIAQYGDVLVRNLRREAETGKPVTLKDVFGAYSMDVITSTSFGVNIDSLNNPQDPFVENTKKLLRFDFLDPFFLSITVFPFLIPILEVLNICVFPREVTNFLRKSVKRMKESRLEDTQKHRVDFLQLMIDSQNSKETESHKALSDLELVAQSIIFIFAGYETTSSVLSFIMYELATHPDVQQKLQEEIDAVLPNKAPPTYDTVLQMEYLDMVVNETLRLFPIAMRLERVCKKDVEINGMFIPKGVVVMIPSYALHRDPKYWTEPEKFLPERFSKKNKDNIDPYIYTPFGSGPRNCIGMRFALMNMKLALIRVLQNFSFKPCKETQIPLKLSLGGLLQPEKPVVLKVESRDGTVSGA
Cytochrome P450 2C19, sequence (P33261 whole entry): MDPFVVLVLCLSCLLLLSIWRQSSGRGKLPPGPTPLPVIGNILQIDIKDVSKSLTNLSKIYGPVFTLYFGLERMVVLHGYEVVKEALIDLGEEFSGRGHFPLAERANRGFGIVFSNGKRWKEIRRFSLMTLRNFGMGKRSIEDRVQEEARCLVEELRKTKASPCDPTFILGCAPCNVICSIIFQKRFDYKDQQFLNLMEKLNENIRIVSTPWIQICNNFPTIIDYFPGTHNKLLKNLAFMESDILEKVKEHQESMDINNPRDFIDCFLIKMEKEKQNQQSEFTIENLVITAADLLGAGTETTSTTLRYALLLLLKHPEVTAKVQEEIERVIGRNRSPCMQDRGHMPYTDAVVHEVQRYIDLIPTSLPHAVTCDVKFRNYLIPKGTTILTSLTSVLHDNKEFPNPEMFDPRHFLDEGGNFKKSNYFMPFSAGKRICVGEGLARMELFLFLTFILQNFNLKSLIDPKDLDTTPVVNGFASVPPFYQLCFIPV

As a reminder, the EC50 is the concentration at which the effect is half-maximal. On to `COc1cc(C(=O)NC(c2ccccc2)c2ccccc2)cc(OC)c1C`, for which the concentration giving a half-maximal response (EC50) in experiment [1] and in experiment [2] was > 300 µM (not active) each time.

With `O=C(NNC(=O)c1ccccc1[N+](=O)[O-])c1csc(N2CCOCC2)n1`, the EC50 is 84.9 µM (active) in experiment [1] and 0.731 µM (active) in experiment [2].

Regarding `Cc1cc(/C=N/n2cnnc2)c(C)n1-c1cccc(C(=O)O)c1`, the EC50 in experiment [1] and in experiment [2] was > 300 µM (not active) throughout.

What is called AC50 is the concentration at which the activity in the assay is half-maximal. `C[C@H]1COC(=O)[C@H](Cc2ccccc2)NC(=O)[C@@H](C)COC(=O)[C@H](Cc2ccccc2)NC1=O`: the AC50 at Cytochrome P450 3A4 is 3.98 µM (inconclusive).

Consider `CC(=C\c1ccco1)/C=C1/SC(=S)N(CC(=O)O)C1=O`, for which the EC50 in experiment [1] and in experiment [2] was > 300 µM (not active) throughout.

As for `O=C(c1[nH]o[n+](=O)c1C(=O)c1csc2ccccc12)c1csc2ccccc12`, on Cytochrome P450 3A4, the AC50 was 3.16 µM (inconclusive).

`CN1CC[C@@]2(CCCN(C(=O)c3ccncc3)C2)C1`: the concentration at half-maximal activity (AC50) on Cytochrome P450 3A4 is 31.6 µM (inconclusive).

In the case of `C=CCN1C(=O)NC(=O)/C(=C/C=C/Nc2ccccc2)C1=O`, the values for the EC50 in experiment [1] and in experiment [2] were > 300 µM (not active) and > 300 µM (inconclusive), respectively.

For `CCCCN1C(=O)NC(=O)/C(=C\NCCN2CCCCC2)C1=O`, the AC50 at Cytochrome P450 3A4 was 20 µM (inconclusive).

For the molecule `CC(C)N1CCc2c(sc(NC(=O)c3ccc(S(=O)(=O)N(C)CC4CCCO4)cc3)c2C(N)=O)C1` (stereo unspecified), the EC50 in experiment [1] is 203 µM (active); in experiment [3] it was > 150 µM (not active); in experiment [2], > 300 µM (not active); on Streptokinase A it was > 150 µM (not active); in the experiment on Streptococcus, > 150 µM (not active).

In the case of `O=C(Cc1ccccc1)Nc1ccc(N2CCOCC2)cc1N1CCOCC1`, the EC50 in experiment [1] and in experiment [2] was > 300 µM (not active) in each case.

With `Cc1nc2ncnn2c(C)c1CCC(=O)NCc1ccccc1`, the AC50 on Cytochrome P450 3A4 was 17.8 µM (inconclusive).

For `COc1ccc(CCN2C(=O)NC(=O)/C(=C\Nc3ccc(NC(C)=O)cc3)C2=O)cc1OC`, the EC50 in experiment [1] and in experiment [2] was > 300 µM (not active) in each case.

With `COC(=O)C1=C(C)N(c2ccc(Cl)cc2)/C(=C/c2cccs2)C1=O`, the EC50 in experiment [1] and in experiment [2] was > 300 µM (not active) each time.

As for `O=c1c(-c2ccc(F)c(F)c2)nc2cncnc2n1C1CC1`, the AC50 on Cytochrome P450 3A4 is 12.6 µM (inconclusive).

As to `O=C(O)c1cc2cc(Cc3cccnc3)ccc2o1`, at Cytochrome P450 3A4, the AC50 was 25.1 µM (inconclusive).

On to `Cc1ccc2c(c1)C1C=CCC1C(C(=O)NCCCN1CCOCC1)N2` (stereo unspecified), for which the EC50 in experiment [1] and in experiment [2] was > 300 µM (not active) each time.

Consider `CCN(CC)CCN1C(=O)C(O)=C(C(=O)c2cc3cccc(OC)c3o2)C1c1ccc(F)cc1` (stereo unspecified), for which the EC50 in experiment [1] and in experiment [2] was > 300 µM (not active) in each case.

Take `Oc1ccc([C@@H]2CNCc3sccc32)cc1O`: the half-maximal activity concentration (AC50) on Cytochrome P450 3A4 was 15.8 µM (inconclusive).

Take `Cn1cc(-c2nc3cnc(N4CCNCC4)nc3n(-c3ccccc3)c2=O)c2ccccc21`: on Cytochrome P450 3A4, the AC50 is 20 µM (inconclusive).

In the case of `COc1ccc(Nc2nnc(-c3ccc(N4CCOCC4)c([N+](=O)[O-])c3)c3ccccc23)cc1`, the AC50 was 15.8 µM (inconclusive) at Cytochrome P450 2C19 and 7.94 µM (inconclusive) at Cytochrome P450 3A4.

(Values after ChEMBL document CHEMBL1201862, “PubChem BioAssay data set” (2004).)
